Key:
U−2 OS cells = assay: Scratch motility (wound-healing) assay; type: cell-based, human
Method: U-2 OS cells were seeded in 6-well plates at a density of 200,000 per well and cultured to 90% abundance after 18 h. The cells were scratched with a 10 μL pipette tip along the ruler; each well was scratched 3 times in parallel, and the line was drawn perpendicular to the scratch on the back for fixed-point photography. We suctioned the previous medium and washed the cells with a PBS reagent. Then, we added 2% FBS medium with DS−1 and cultured the cells at 37 °C for different times. After 0, 24, and 48 h, the plate was taken out, and the scratches were observed and photographed by the inverted microscope, while the distance of scratches at different times was measured.
Cell mobility = (pre-migration distance – post-migration distance)/pre-migration distance × 100%. The cell migration rate of blank control was set as 100%, and the relative cell migration rate = cell migration rate/cell migration rate of control group × 100%

CDK2 = assay: RT-PCR CDK2 mRNA in U−2 OS cells; type: cell-based, human; conditions: 24 h
Method: (§1) Total RNA within cells was extracted by the RNAeasy™ Animal Long RNA Isolation Kit with Spin Column (Shanghai, Beyotime); the concentrations and OD260/OD280 and OD230/OD260 values were measured by NanoDrop. Five micrograms of RNA was used for reverse transcription; each sample was diluted to 16 μL, and 4 μL of synthesized premix solution (5×) was added, then the mixtures were placed in a 42 °C water bath for 10 min, then an 80 °C water bath for 10 min to deactivate reverse transcriptase. After reverse transcription, each sample was diluted to 140 μL. PCR amplification was carried out by the ABI700 real-time PCR system, and the amplification reaction was detected with a SYBR probe. After PCR, actin and GAPDH were used as internal references, and the relative standard curve method (2^−ΔΔcT) determined the relative expression of mRNA.

[1] = system: U−2 OS cells transfected with CD44 siRNA; assay: Trypsin digestion time, CD44 siRNA knockdown U−2 OS cells; type: cell-based, human; conditions: DS−1 7.5 μM for 24 h, 25 °C, control about 120 s
Method: Figure 8 CD44 knockdown reduced cell adhesion by shortening cell protrusions. (A) U−2 OS cells transfected with CD44 siRNA and no siRNA were seeded into a 24-well plate treated with 7.5 μM DS−1 for 24 h, and the expression of CD44 was detected by immunofluorescence. (B) CD44 expression of U−2 OS cells was detected by Western blotting after being treated with siRNA for 0, 24, and 36 h. (C) U−2 OS cells were first transfected with/without CD44 siRNA and then treated with DS−1 for 24 h, and its actin morphologies were detected. The representative magnified actin morphologies are listed in (D). (E) The lengths of protrusions in (C) were analyzed by Image J and are shown in a scatterplot graph. The lengths of 20 protrusions from actin in (C) were calculated. Each value is the average of 20 lengths of protrusions, ** p < 0.01, *** p < 0.005. (F) U−2 OS cells were transfected with CD44 siRNA, then treated with 0 and 7.5 μM DS−1 for 24 h and digested with trypsin at 25 °C; the digestion time was recorded by a microscope, and photos were taken every 30 s. The percentage of digested cells is recorded in (G).
Small interfering RNA (siRNA) oligonucleotide was synthesized by Sunya Biotechnology Co., Ltd (Hangzhou, China). The siRNA sequences were as follows: sense (5′–3′), UAUUCCACGUGGAGAAAAAtt; antisense (5′–3′), UUUUUCUCCACGUGGAAUAca. […]

HeLa cells = assay: MTT cell proliferation assay, HeLa cells; type: cell-based; conditions: Homo sapiens, 24 h, read-out: IC50 HeLa cells (24 h)
Method: The effects of tanshinones (DS−1 to DS−5) on the proliferation of U−2 OS cells, HeLa cells, and NRK−49F cells were measured by the classical MTT method with minor modifications as follows. Cells were seeded at 5000 per well in 96-well plates, with each group being repeated in 5 wells, and were incubated for 12 h. DS−1 to DS−5 were added at gradient concentrations, then incubated for 24 and 48 h, respectively. Then, 20 μL MTT solution (solved in PBS, 5 mg/mL) was added to every well, and the cells were further incubated at 37 °C for 4 h until a purple precipitate was visible. The plate was centrifuged at 1000 rpm for 1 min; the supernatant was suctioned, and 150 μL of DMSO was added per well; the plate was shaken on a shaker protected from light for 15 min. We placed the plate in an enzyme marker and measured the absorbance values at a 490 nm wavelength.

cyclin E1 = assay: RT-PCR cyclin E1 mRNA in U−2 OS cells; type: cell-based, human; conditions: 24 h
Method: as §1

p21 = assay: RT-PCR p21 mRNA in U−2 OS cells; type: cell-based, human; conditions: 24 h
Method: as §1

[2] = first of three DS−1 doses (2.5 µM per Fig. 5 legend)
[3] = second of three DS−1 doses (5.0 µM per Fig. 5 legend)
[4] = third of three DS−1 doses (7.5 µM per Fig. 5 legend)

## Cc1cccc2c3c(ccc12)C1=C(C(=O)C3=O)[C@@H](C)CO1 [DS−1, 15,16-Dihydrotanshinone I]
U−2 OS cells; DS−1 2.5 µM, 24 h
  relative mobility compared to control cells: 24.8 ± 9.9%
U−2 OS cells; DS−1 2.5 μM, 48 h
  relative mobility compared to control cells: 18.1 ± 6.6%
U−2 OS cells; DS−1 5.0 µM, 24 h
  relative mobility compared to control cells: 17.5 ± 6.6%
U−2 OS cells; DS−1 5.0 μM, 48 h
  relative mobility compared to control cells: 7.3 ± 7.1%
U−2 OS cells; DS−1 7.5 µM, 24 h
  relative mobility compared to control cells: 6.6 ± 0.8%
U−2 OS cells; DS−1 7.5 μM, 48 h
  relative mobility compared to control cells: 4.3 ± 1.8%
CDK2; [2]
  CDK2 mRNA, fold of the control group: 0.85 ± 0.08 fold
CDK2; [3]
  CDK2 mRNA, fold of the control group: 0.80 ± 0.16 fold
CDK2; [4]
  CDK2 mRNA, fold of the control group: 0.66 ± 0.07 fold
[1]
  time to total trypsin digestion: ≤ 150 s
HeLa cells
  IC50: 15.5 ± 0.98 µM
Cyclin E1; [2]
  cyclin E1 mRNA, fold of the control group: 0.52 ± 0.04 fold
Cyclin E1; [3]
  cyclin E1 mRNA, fold of the control group: 0.48 ± 0.08 fold
Cyclin E1; [4]
  cyclin E1 mRNA, fold of the control group: 0.36 ± 0.04 fold
p21; DS−1 2.5 µM
  p21 mRNA, fold of the control group: 10.1 ± 3.9 fold
p21; DS−1 5.0 µM
  p21 mRNA, fold of the control group: 56.8 ± 8.2 fold
p21; DS−1 7.5 µM
  p21 mRNA, fold of the control group: 90.2 ± 6.7 fold
